# According to patent US11390604B2 (Hoffmann-La Roche Inc., priority 2019, dated 2022):
# Structures can show the parent of a compound that is named as a salt.
# Tested on: Acinetobacter baumannii ATCC 17961
# Experiment: Antimicrobial susceptibility testing: 90% growth inhibitory concentration (IC90) determination
# Assay type: cell-based
# Conditions: ATCC17961, Acinetobacter baumannii ATCC 17961, Iso-Sensitest broth, read-out: ATCC 17961 IC90
# Method in brief: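 Growth was followed kinetically by OD600 at 20-min intervals for 16 h at 35±2 °C, with ~5×10^5 CFU/ml in Iso-Sensitest broth. Compounds were tested as twofold dilutions (e.g. 50–0.097 μM final). The concentration giving 90% inhibition of log-phase growth was reported.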
row,Structure (SMILES),IC90
1,"Cn1c(-c2cn(C3CC3)nc2C(F)(F)F)cnc1C(=O)Nc1ccc(C(=O)N[C@H]2[C@@H]3CN(C(=O)C4CCNCC4)C[C@@H]32)c(Cl)c1 [Example 306, N-(3-chloro-4-((exo-3-(piperidine-4-carbonyl)-3-azabicyclo[3.1.0]hexan-6-yl)carbamoyl)phenyl)-5-(1-cyclopropyl-3-(trifluoromethyl)-1H-pyrazol-4-yl)-1-methyl-1H-imidazole-2-carboxamide]",374 nM
2,"Cn1c(-c2cn(CC=C(F)F)nc2C(F)(F)F)cnc1C(=O)Nc1ccc(C(=O)N[C@H]2C[C@@H](N)C2)c(Cl)c1 [Example 307, rac-N-(4-(((1s,3s)-3-aminocyclobutyl)carbamoyl)-3-chlorophenyl)-5-(1-(3,3-difluoroallyl)-3-(trifluoromethyl)-1H-pyrazol-4-yl)-1-methyl-1H-imidazole-2-carboxamide 2,2,2-trifluoroacetate]",375 nM
3,"CSc1ccc(NC(=O)c2ncc(-c3cn(CC(F)F)nc3C(F)(F)F)n2C)cc1C [Example 308, 5-[1-(2,2-difluoroethyl)-3-(trifluoromethyl)pyrazol-4-yl]-1-methyl-N-(3-methyl-4-methylsulfanyl-phenyl)imidazole-2-carboxamide]",377 nM
4,"Cn1c(-c2cn(C3CC3)nc2C(F)(F)F)cnc1C(=O)Nc1ccc(C(=O)N2CCN(C(=O)CC3CCNCC3)CC2)c(Cl)c1 [Example 309, N-(3-chloro-4-(4-(2-(piperidin-4-yl)acetyl)piperazine-1-carbonyl)phenyl)-5-(1-cyclopropyl-3-(trifluoromethyl)-1H-pyrazol-4-yl)-1-methyl-1H-imidazole-2-carboxamide hydrochloride]",378 nM
5,"Cn1c(-c2cn(C3CC3)nc2C(F)(F)F)cnc1C(=O)Nc1ccc(C(=O)N2CCN(C(=O)C3CNCCC3O)CC2)c(Cl)c1 (stereo not shown) [Example 311, N-[3-chloro-4-[4-(4-hydroxypiperidine-3-carbonyl)piperazine-1-carbonyl]phenyl]-5-[1-cyclopropyl-3-(trifluoromethyl)pyrazol-4-yl]-1-methylimidazole-2-carboxamide;hydrochloride]",382 nM
6,"C/C=C/Cn1cc(-c2cnc(C(=O)Nc3ccc(C(=O)N4CCN(C(=O)C5CCNCC5)CC4)c(Cl)c3)n2C)c(C(F)(F)F)n1 [Example 312, (E)-5-(1-(but-2-en-1-yl)-3-(trifluoromethyl)-1H-pyrazol-4-yl)-N-(3-chloro-4-(4-(piperidine-4-carbonyl)piperazine-1-carbonyl)phenyl)-1-methyl-1H-imidazole-2-carboxamide hydrochloride]",385 nM
7,"Cn1c(-c2cn(C3CC3)nc2C(F)(F)F)cnc1C(=O)Nc1ccc(C(=O)N2CCN(C(=O)[C@H]3C[C@H](O)CN3)CC2)c(Cl)c1 [Example 313, N-(3-chloro-4-(4-((2R,4S)-4-hydroxypyrrolidine-2-carbonyl)piperazine-1-carbonyl)phenyl)-5-(1-cyclopropyl-3-(trifluoromethyl)-1H-pyrazol-4-yl)-1-methyl-1H-imidazole-2-carboxamide hydrochloride]",386 nM
8,"Cn1c(-c2cn(C3CC3(F)F)nc2C(F)(F)F)cnc1C(=O)Nc1ccc(C(=O)NCCCCNC(=O)OC(C)(C)C)c(Cl)c1 (stereo not shown) [Example 314, tert-butyl (4-(2-chloro-4-(5-(1-(2,2-difluorocyclopropyl)-3-(trifluoromethyl)-1H-pyrazol-4-yl)-1-methyl-1H-imidazole-2-carboxamido)benzamido)butyl) carbamate]",388 nM
9,"Cn1c(-c2cn(CC#N)nc2C(F)(F)F)cnc1C(=O)Nc1ccc(C(=O)N[C@H]2C[C@H](NC(=O)[C@@H]3CCNC3)C2)c(Cl)c1 [Example 315, N-[3-chloro-4-[[3-[[(3R)-pyrrolidine-3-carbonyl]amino]cyclobutyl]car-bamoyl]phenyl]-5-[1-(cyanomethyl)-3-(trifluoromethyl)pyrazol-4-yl]-1-methylimidazole-2-carboxamide;formic acid]",390 nM
10,"Cn1c(-c2cn(CC#N)nc2C(F)(F)F)cnc1C(=O)Nc1ccc(C(=O)N[C@H]2C[C@@H](NC(=O)N3CC[C@@H](N)C3)C2)c(Cl)c1 [Example 316, N-[4-[[3-[[(3R)-3-aminopyrrolidine-1-carbonyl]amino]cyclobutyl]car-bamoyl]-3-chloro-phenyl]-5-[1-(cyanomethyl)-3-(trifluoromethyl)pyrazol-4-yl]-1-methyl-imidazole-2-carboxamide; formic acid]",392 nM
11,"Cn1c(-c2cn(C3CC3)nc2C(F)(F)F)cnc1C(=O)Nc1ccc(C(=O)NC2CC3(CC(N)C3)C2)c(Cl)c1 (stereo not shown) [Example 317, N-(4-((6-aminospiro[3.3]heptan-2-yl)carbamoyl)-3-chlorophenyl)-5-(1-cyclopropyl-3-(trifluoromethyl)-1H-pyrazol-4-yl)-1-methyl-1H-imidazole-2-carboxamide hydrochloride]",393 nM
12,"Cn1c(-c2cn(C3CC3)nc2C(F)(F)F)cnc1C(=O)Nc1ccc(C(=O)N2CCN(C(=O)C3(O)CCNC3)CC2)c(Cl)c1 (stereo not shown) [Example 318, N-[3-chloro-4-[4-(3-hydroxypyrrolidine-3-carbonyl)piperazine-1-carbonyl]phenyl]-5-[1-cyclopropyl-3-(trifluoromethyl)pyrazol-4-yl]-1-methylimidazole-2-carboxamide;hydrochloride]",396 nM
13,"Cn1c(-c2cn(C3CC3(F)F)nc2C(F)(F)F)cnc1C(=O)Nc1ccc(C(=O)NC2CC3CNCC32)c(Cl)c1 (stereo not shown) [Example 319, N-(4-((3-azabicyclo[3.2.0]heptan-6-yl)carbamoyl)-3-chlorophenyl)-5-(1-(2,2-difluorocyclopropyl)-3-(trifluoromethyl)-1H-pyrazol-4-yl)-1-methyl-1H-imidazole-2-carboxamide formate]",398 nM
14,"Cn1c(-c2cn(C3CC3)nc2C(F)(F)F)cnc1C(=O)Nc1ccc(C(=O)N2CCN(C(=O)NCC3(O)CCNCC3)CC2)c(Cl)c1 [Example 320, 4-(2-chloro-4-(5-(1-cyclopropyl-3-(trifluoromethyl)-1H-pyrazol-4-yl)-1-methyl-1H-imidazole-2-carboxamido)benzoyl)-N-((4-hydroxypiperidin-4-yl)methyl)piperazine-1-carboxamide formate]",403 nM
15,"Cn1c(-c2cn(C3CC3)nc2C(F)(F)F)cnc1C(=O)Nc1ccc(C(=O)N2CCN(C(=O)[C@@H]3C[C@@H](O)CN3)CC2)c(Cl)c1 [Example 321, N-(3-chloro-4-(4-((2S,4R)-4-hydroxypyrrolidine-2-carbonyl)piperazine-1-carbonyl)phenyl)-5-(1-cyclopropyl-3-(trifluoromethyl)-1H-pyrazol-4-yl)-1-methyl-1H-imidazole-2-carboxamide hydrochloride]",403 nM
16,"Cn1c(-c2cn(C3CC3)nc2C(F)(F)F)cnc1C(=O)Nc1ccc(C(=O)N[C@H]2[C@@H]3CN(C(=O)N4CC[C@@H](N)C4)C[C@@H]32)c(Cl)c1 [Example 322, N-(4-((exo-3-((R)-3-aminopyrrolidine-1-carbonyl)-3-azabicyclo[3.1.0]hexan-6-yl)carbamoyl)-3-chlorophenyl)-5-(1-cyclopropyl-3-(trifluoromethyl)-1H-pyrazol-4-yl)-1-methyl-1H-imidazole-2-carboxamide formate]",407 nM
17,"Cn1c(-c2cn(C3CC3)nc2C(F)(F)F)cnc1C(=O)Nc1ccc(C(=O)N2CCC(C3CCNCC3)CC2)c(Cl)c1 [Example 323, N-(4-([4,4′-bipiperidine]-1-carbonyl)-3-chlorophenyl)-5-(1-cyclopropyl-3-(trifluoromethyl)-1H-pyrazol-4-yl)-1-methyl-1H-imidazole-2-carboxamide formate]",407 nM
18,"C[C@H](N)C(=O)N[C@H]1CC[C@@H](NC(=O)c2ccc(NC(=O)c3ncc(-c4cn(CC#N)nc4C(F)(F)F)n3C)cc2Cl)CC1 [Example 324, N-[4-[[4-[[(2S)-2-aminopropanoyl]amino]cyclo-hexyl]carbamoyl]-3-chlorophenyl]-5-[1-(cyanomethyl)-3-(trifluoromethyl)pyrazol-4-yl]-1-methylimidazole-2-carboxamide;2,2,2-trifluoroacetic acid]",408 nM
19,"CCn1cc(-c2cnc(C(=O)Nc3ccc(C(=O)N4CCN(C(=O)N[C@H]5C[C@@H](N)C5)CC4)c(Br)c3)n2C)c(C(F)(F)F)n1 [Example 325, rac-N-((is,3s)-3-aminocyclobutyl)-4-(2-bromo-4-(5-(1-ethyl-3-(trifluoromethyl)-1H-pyrazol-4-yl)-1-methyl-1H-imidazole-2-carboxamido)benzoyl)piperazine-1-carboxamidee formate]",411 nM
20,"Cn1c(-c2cn(CC#N)nc2C(F)(F)F)cnc1C(=O)Nc1ccc(C(=O)N[C@H]2C[C@@H](NC(=O)N3CCCC(N)C3)C2)c(Cl)c1 (stereo partly shown) [Example 326, 3-amino-N-[3-[[2-chloro-4-[[5-[1-(cyanomethyl)-3-(trifluoromethyl)pyrazol-4-yl]-1-methyl-imidazole-2-carbonyl]amino]benzoyl]amino]cyclobutyl]piperidine-1-carboxamide; formic acid]",411 nM
21,"Cn1c(-c2cn(CC3CCC3)nc2C(F)(F)F)cnc1C(=O)Nc1ccc(C(=O)N2CCN(C(=O)[C@H]3CC[C@@H](N)C3)CC2)c(Cl)c1 [Example 327, N-(4-(4-((1S,3R)-3-aminocyclopentane-1-carbonyl)piperazine-1-carbonyl)-3-chlorophenyl)-5-(1-(cyclobutylmethyl)-3-(trifluoromethyl)-1H-pyrazol-4-yl)-1-methyl-1H-imidazole-2-carboxamide hydrochloride]",414 nM
22,"Cn1c(-c2cn(CC#N)nc2C(F)(F)F)cnc1C(=O)Nc1ccc(C(=O)N[C@H]2C[C@@H](NC(=O)N3CC4CC3CN4)C2)c(Cl)c1 (stereo partly shown) [Example 328, N-[3-[[2-chloro-4-[[5-[1-(cyanomethyl)-3-(trifluoromethyl)pyrazol-4-yl]-1-methyl-imidazole-2-carbonyl]amino]benzoyl]amino]cyclobutyl]-2,5-diazabicyclo[2.2.1]heptane-2-carboxamide; formic acid]",420 nM
